Reference: the supplement of paper PMC10307832

What follows are cell lines tested with N[C@@H]1CCCN(c2c(/C=C3\SC(=O)NC3=O)cccc2-c2ccccc2)C1 [AZD1208] + Cc1nc(NC(=O)N2CCC[C@H]2C(N)=O)sc1-c1ccnc(C(C)(C)C(F)(F)F)c1 [Alpelisib] (partner 2 µM) (assay: relative viability (nuclei count vs DMSO), 5 days (fraction); higher = more cells survive). Settings: first compound 8 µM.
How it was run: (§1)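 Lung cancer cell lines were seeded in 1536-well plates and dosed by pin tool the next day, with either a single drug or a fixed anchor-drug dose combined with five library-drug doses (not always all listed) spaced in √10 steps. Five days later, one step fixed the cells and stained their nuclei (final 0.05% Triton X-100, 1% formaldehyde, 1 ug/ml Hoechst), and nuclei were counted on 4× images. Relative viability is the nuclei count in treated wells divided by the count in vehicle wells, and each value is the median of duplicate plates.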

Compared with 201T, NCI-H1915 is higher in relative viability: 0.976 for the first, 1.03 for the second.

Going from HCC-827 to LXF-289, the relative viability rises from 0.893 to 1.03.

Going from NCI-H2347 to NCI-H650, the relative viability falls from 0.96 to 0.823.

Going from CAL-12T to NCI-H1651, the relative viability falls from 0.851 to 0.677.

Going from EPLC-272H to NCI-H23, the relative viability falls from 0.894 to 0.561.

Compared with NCI-H1355, NCI-H322M is higher in relative viability: 0.64 for the first, 0.821 for the second.

First: NCI-H1437
Second: NCI-H1755
The relative viability of the first is lower: 0.504 for the first, 0.741 for the second.

First: NCI-H2085
Second: HCC-15
The relative viability of the first is higher: 1.03 for the first, 0.584 for the second.

First: NCI-H1793
Second: PC-3 [JPC-3]
The relative viability of the first is lower: 0.498 for the first, 0.946 for the second.

First: EKVX
Second: LC-2-ad
The relative viability of the first is lower: 0.71 for the first, 0.794 for the second.

Going from NCI-H1944 to NCI-H1975, the relative viability rises from 0.6 to 0.607.

First: ABC-1
Second: NCI-H358
The relative viability of the first is higher: 0.935 for the first, 0.569 for the second.

RERF-LC-KJ was tested, and the relative viability was 0.607.

What follows are cell lines tested with CN1CCN(CC1)C2=CC(=C(C=C2)NC3=NC(=C(S3)C(=O)C4=C(C=CC=C4Cl)Cl)N)OC [XMD14-99] + COc1cc2c(Oc3ccc(NC(=O)C4(C(=O)Nc5ccc(F)cc5)CC4)cc3F)ccnc2cc1OCCCN1CCOCC1 [Foretinib] (partner 0.25 µM) in the same assay as above. Settings: first compound 0.08 µM.
How it was run: as §1

Going from HCC-78 to NCI-H441, the relative viability rises from 0.506 to 0.766.

Compared with LCLC-97TM1, A-427 is higher in relative viability: 0.918 for the first, 1.04 for the second.

First: NCI-H460
Second: NCI-H727
The relative viability of the first is higher: 1.03 for the first, 0.95 for the second.

First: NCI-H1734
Second: NCI-H2405
The relative viability of the first is lower: 0.821 for the first, 1.04 for the second.

Going from NCI-H1395 to 201T, the relative viability rises from 0.986 to 1.05.

NCI-H1915 and HCC-827 are the same in relative viability: 1.06 for the first, 1.06 for the second.

Going from LXF-289 to NCI-H2347, the relative viability falls from 0.964 to 0.913.

Going from NCI-H650 to CAL-12T, the relative viability rises from 1.05 to 1.09.

Going from NCI-H1651 to EPLC-272H, the relative viability falls from 0.811 to 0.748.

First: NCI-H23
Second: NCI-H1355
The relative viability of the first is lower: 0.908 for the first, 0.994 for the second.

First: NCI-H322M
Second: NCI-H1437
The relative viability of the first is lower: 1.01 for the first, 1.25 for the second.

Compared with NCI-H1755, NCI-H2085 is lower in relative viability: 0.916 for the first, 0.915 for the second.

Going from HCC-15 to NCI-H1793, the relative viability falls from 1.01 to 0.704.

Going from PC-3 [JPC-3] to EKVX, the relative viability falls from 1.06 to 0.768.

First: LC-2-ad
Second: NCI-H1944
The relative viability of the first is higher: 1 for the first, 0.886 for the second.

First: NCI-H1975
Second: ABC-1
The relative viability of the first is lower: 1.01 for the first, 1.14 for the second.

Compared with NCI-H358, RERF-LC-KJ is lower in relative viability: 0.759 for the first, 0.462 for the second.

Same assay, conditions: first compound 0.8 µM

First: HCC-78
Second: NCI-H441
The relative viability of the first is lower: 0.489 for the first, 0.993 for the second.

Going from LCLC-97TM1 to A-427, the relative viability rises from 0.855 to 0.988.

Compared with NCI-H460, NCI-H727 is lower in relative viability: 1.03 for the first, 0.893 for the second.

Compared with NCI-H1734, NCI-H2405 is higher in relative viability: 0.826 for the first, 1.03 for the second.

Going from NCI-H1395 to 201T, the relative viability rises from 0.965 to 1.1.

First: NCI-H1915
Second: HCC-827
The relative viability of the first is higher: 1.02 for the first, 0.935 for the second.

Compared with LXF-289, NCI-H2347 is lower in relative viability: 0.949 for the first, 0.92 for the second.

Going from NCI-H650 to CAL-12T, the relative viability rises from 1.01 to 1.06.

Compared with NCI-H1651, EPLC-272H is higher in relative viability: 0.706 for the first, 0.764 for the second.

Compared with NCI-H23, NCI-H1355 is lower in relative viability: 0.981 for the first, 0.913 for the second.

Going from NCI-H322M to NCI-H1437, the relative viability rises from 0.893 to 1.05.

First: NCI-H1755
Second: NCI-H2085
The relative viability of the first is lower: 0.9 for the first, 0.959 for the second.

Going from HCC-15 to NCI-H1793, the relative viability falls from 1.01 to 0.608.

Compared with PC-3 [JPC-3], EKVX is lower in relative viability: 0.957 for the first, 0.888 for the second.

First: LC-2-ad
Second: NCI-H1944
The relative viability of the first is higher: 1.01 for the first, 0.841 for the second.

First: NCI-H1975
Second: ABC-1
The relative viability of the first is higher: 0.92 for the first, 0.883 for the second.

Going from NCI-H358 to RERF-LC-KJ, the relative viability rises from 0.745 to 0.908.

Same assay, conditions: first compound 2.53 µM

Compared with HCC-78, NCI-H441 is higher in relative viability: 0.566 for the first, 0.849 for the second.

Going from LCLC-97TM1 to A-427, the relative viability falls from 0.918 to 0.814.

Compared with NCI-H460, NCI-H727 is lower in relative viability: 1.01 for the first, 0.684 for the second.

Compared with NCI-H1734, NCI-H2405 is higher in relative viability: 0.793 for the first, 1.02 for the second.

First: NCI-H1395
Second: 201T
The relative viability of the first is lower: 0.998 for the first, 1.01 for the second.

First: NCI-H1915
Second: HCC-827
The relative viability of the first is lower: 0.961 for the first, 0.978 for the second.

First: LXF-289
Second: NCI-H2347
The relative viability of the first is lower: 0.923 for the first, 1 for the second.

Compared with NCI-H650, CAL-12T is lower in relative viability: 0.944 for the first, 0.876 for the second.

Going from NCI-H1651 to EPLC-272H, the relative viability falls from 0.866 to 0.684.

Going from NCI-H23 to NCI-H1355, the relative viability falls from 0.843 to 0.808.

First: NCI-H322M
Second: NCI-H1437
The relative viability of the first is lower: 0.932 for the first, 1.06 for the second.

Compared with NCI-H1755, NCI-H2085 is lower in relative viability: 0.817 for the first, 0.704 for the second.

Going from HCC-15 to NCI-H1793, the relative viability falls from 0.9 to 0.644.

First: PC-3 [JPC-3]
Second: EKVX
The relative viability of the first is lower: 0.858 for the first, 0.876 for the second.

Going from LC-2-ad to NCI-H1944, the relative viability falls from 0.849 to 0.7.

Compared with NCI-H1975, ABC-1 is higher in relative viability: 0.924 for the first, 0.957 for the second.

Compared with NCI-H358, RERF-LC-KJ is higher in relative viability: 0.574 for the first, 0.867 for the second.

Same assay, conditions: first compound 8 µM

Compared with HCC-78, NCI-H441 is higher in relative viability: 0.53 for the first, 0.751 for the second.

Going from LCLC-97TM1 to A-427, the relative viability rises from 0.641 to 0.712.

Compared with NCI-H460, NCI-H727 is lower in relative viability: 0.808 for the first, 0.555 for the second.

Going from NCI-H1734 to NCI-H2405, the relative viability rises from 0.7 to 0.838.

Compared with NCI-H1395, 201T is higher in relative viability: 0.901 for the first, 0.956 for the second.

Compared with NCI-H1915, HCC-827 is lower in relative viability: 0.859 for the first, 0.727 for the second.

Going from LXF-289 to NCI-H2347, the relative viability falls from 0.898 to 0.369.

Going from NCI-H650 to CAL-12T, the relative viability rises from 0.935 to 1.02.

In the case of NCI-H1651, the relative viability is reported as 0.694.
